Laboratory results: article PMC11855827, “High-Throughput Screening of Five Compound Libraries for Anthelmintic Activity and Toxicity Leads to the Discovery of Two Flavonoid Compounds” (International Journal of Molecular Sciences, 2025)
“And” between values parts separate entries of the source, which are not always exact repeats. Identical values can stand only once. Like-named read-outs stand apart in the source and are kept apart here. Where a SMILES comes first, the peptide text is derived from it.

Test system: C. elegans
[1] = Table S2, C. elegans SS assay, 110 μM, 0 h, averages of 4 data points
[2] = Table S2, C. elegans SS assay, 110 μM, 24 h, averages of 4 data points

For `CC(C)OC(=O)OCOP(=O)(CO[C@H](C)Cn1cnc2c(N)ncnc21)OCOC(=O)OC(C)C.O=C(O)/C=C/C(=O)O` [Tenofovir (Disoproxil Fumarate)], the “Percentage of motility inhibition 0 h” value [1] was 5% and the “Percentage of motility inhibition 24 h” value [2] was 1%.

`CC[C@@]1(O)C(=O)OCc2c1cc1n(c2=O)Cc2cc3c(OC)cccc3nc2-1` [9‐Methoxycamptothecin] was tested, and the “Percentage of motility inhibition 0 h” value [1] was 22% and the “Percentage of motility inhibition 24 h” value [2] was 0%.

`COc1cc(/C=C/C(=O)NCC(O)c2ccc(O)cc2)ccc1O` (centres unmarked) [N‐Feruloyloctopamine] was tested, and the “Percentage of motility inhibition 0 h” value [1] was 14% and the “Percentage of motility inhibition 24 h” value [2] was 0%.

In the case of Asiaticoside, the “Percentage of motility inhibition 0 h” value [1] is reported as 6% and the “Percentage of motility inhibition 24 h” value [2] is reported as 0%.

`CC(=O)O.CC(=O)O.NC(=N\CCCCCC/N=C(N)/N=C(\N)Nc1ccc(Cl)cc1)/N=C(\N)Nc1ccc(Cl)cc1` [Chlorhexidine (diacetate)] was tested, and the “Percentage of motility inhibition 0 h” value [1] was 38% and the “Percentage of motility inhibition 24 h” value [2] was 62%.

For `Cc1ccc(CCCO)c(NCc2ccc3nc(NCCCN4CCOCC4)n(Cc4nc(C)ccc4O)c3c2)c1` [TMC353121], the “Percentage of motility inhibition 0 h” value [1] was 25% and the “Percentage of motility inhibition 24 h” value [2] was 4%.

With `COc1cc(/C=C/C(=O)OCC[N+](C)(C)C)cc(OC)c1O.N#C[S-]` [Sinapine (thiocyanate)] the “Percentage of motility inhibition 0 h” value [1] was 0% and the “Percentage of motility inhibition 24 h” value [2] was 0%.

In the case of `C[C@@H]1CC[C@@H]2O[C@@]23C(=O)C(=O)[C@@H]2[C@@H](C2(C)C)[C@@]13C` [Kanshone C], the “Percentage of motility inhibition 0 h” value [1] is reported as 17% and the “Percentage of motility inhibition 24 h” value [2] is reported as 22%.

`CC(C)(O[C@@H]1O[C@H](CO)[C@@H](O)[C@H](O)[C@H]1O)[C@@H]1CC[C@](C)([C@H]2[C@@H](O)C[C@@]3(C)[C@@H]4C[C@H](O)[C@H]5C(C)(C)[C@@H](O[C@@H]6OC[C@@H](O)[C@H](O)[C@H]6O)CC[C@@]56C[C@@]46CC[C@]23C)O1` [Isoastragaloside IV] was tested, and the “Percentage of motility inhibition 0 h” value [1] was 0% and the “Percentage of motility inhibition 24 h” value [2] was 0%.

For `CO/N=C(\C(=O)N[C@@H]1C(=O)N2C(C(=O)O)=C(CSc3nnnn3C)CS[C@H]12)c1csc(N)n1.CO/N=C(\C(=O)N[C@@H]1C(=O)N2C(C(=O)O)=C(CSc3nnnn3C)CS[C@H]12)c1csc(N)n1.Cl` [Cefmenoxime (hydrochloride)], the “Percentage of motility inhibition 0 h” value [1] was 15% and the “Percentage of motility inhibition 24 h” value [2] was 0%.

`COc1cccc2c1C(=O)c1c(O)c3c(c(O)c1C2=O)C[C@@](O)(C(=O)CO)C[C@@H]3O[C@H]1C[C@H](N)[C@H](O)[C@H](C)O1.Cl` [Doxorubicin (hydrochloride)] was tested, and the “Percentage of motility inhibition 0 h” value [1] was 13% and the “Percentage of motility inhibition 24 h” value [2] was 4%.

With `C=C(C)[C@@H]1CCC2=CCC[C@@H](C)[C@]2(C)C1` [Valencene] the “Percentage of motility inhibition 0 h” value [1] was 3% and the “Percentage of motility inhibition 24 h” value [2] was 4%.

In the case of `O=C1N[C@@H]2C(=C[C@H](O)[C@@H](O)[C@H]2O)c2cc3c(c(O)c21)OCO3` [Narciclasine], the “Percentage of motility inhibition 0 h” value [1] is reported as 32% and the “Percentage of motility inhibition 24 h” value [2] is reported as 14%.

In the case of `C[C@@H]1O[C@@H](OC[C@H]2O[C@@H](Oc3cc(O)c4c(=O)cc(-c5ccc(O)cc5)oc4c3)[C@H](O[C@@H]3O[C@@H](C)[C@H](O)[C@@H](O)[C@H]3O)[C@@H](O)[C@@H]2O)[C@H](O)[C@H](O)[C@H]1O` [Ligustroflavone], the “Percentage of motility inhibition 0 h” value [1] is reported as 10% and the “Percentage of motility inhibition 24 h” value [2] is reported as 8%.

`CC(=O)O[C@@]12CO[C@@H]1C[C@H](O)[C@@]1(C)C(=O)[C@H](O)C3=C(C)[C@@H](O)C[C@@](O)([C@@H](OC(=O)c4ccccc4)[C@H]21)C3(C)C` [10-Deacetylbaccatin III] was tested, and the “Percentage of motility inhibition 0 h” value [1] was 4% and the “Percentage of motility inhibition 24 h” value [2] was 5%.

With `CC1(C)C(=O)[C@]2(C)CCC1C2` (single isomer, unassigned; (-)) [(-)-Fenchone] the “Percentage of motility inhibition 0 h” value [1] was 26% and the “Percentage of motility inhibition 24 h” value [2] was 22%.

For `CC(C)=CCc1c(O)ccc(C(=O)[C@@H]2[C@@H](c3c(O)cc(O)c4c(=O)c(CC=C(C)C)c(-c5ccc(O)cc5O)oc34)C=C(C)C[C@H]2c2ccc(O)cc2O)c1O` [Kuwanon H], the “Percentage of motility inhibition 0 h” value [1] was 11% and the “Percentage of motility inhibition 24 h” value [2] was 23%.

`C[C@H](CCC(=O)[O-])[C@H]1CC[C@H]2[C@@H]3[C@H](O)C[C@@H]4C[C@H](O)CC[C@]4(C)[C@H]3C[C@H](O)[C@]12C.[Na+]` [Cholic acid (sodium)] was tested, and the “Percentage of motility inhibition 0 h” value [1] was 0% and the “Percentage of motility inhibition 24 h” value [2] was 5%.

In the case of `CC(C)=CCC[C@](C)(O)[C@H]1CC[C@]2(C)[C@@H]1[C@H](O)C[C@@H]1[C@@]3(C)CC[C@H](O)C(C)(C)[C@@H]3[C@@H](O)C[C@]12C` [(20S)-Protopanaxatriol], the “Percentage of motility inhibition 0 h” value [1] is reported as 31% and the “Percentage of motility inhibition 24 h” value [2] is reported as 32%.

In the case of Nordihydrocapsaicin, the “Percentage of motility inhibition 0 h” value (110 µM) is reported as 0% and the “Percentage of motility inhibition 24 h” value (110 µM) is reported as 4%.

`C=C[C@@H]1C2=CCOC(=O)C2=CO[C@H]1O[C@@H]1O[C@H](CO[C@@H]2O[C@H](CO)[C@@H](O)[C@H](O)[C@H]2O)[C@@H](O)[C@H](O)[C@H]1O` [6'-O-beta-D-Glucosylgentiopicroside] was tested, and the “Percentage of motility inhibition 0 h” value [1] was 34% and the “Percentage of motility inhibition 24 h” value [2] was 15%.

In the case of `CN1CC[C@@]23C=C[C@H](O)C[C@@H]2Oc2c(O)ccc(c23)C1` [O‐Desmethyl Galantha mine], the “Percentage of motility inhibition 0 h” value [1] is reported as 4% and the “Percentage of motility inhibition 24 h” value [2] is reported as 5%.

With `COc1cc(-c2coc3c([C@@H]4O[C@H](CO)[C@@H](O)[C@H](O)[C@H]4O)c(O)ccc3c2=O)ccc1O` [3'‐Methoxypuerarin] the “Percentage of motility inhibition 0 h” value [1] was 11% and the “Percentage of motility inhibition 24 h” value [2] was 51%.

With `COc1ccc(-c2cc(=O)c3c(OC)cc(OC)c(OC)c3o2)cc1OC` [Isosinensetin] the “Percentage of motility inhibition 0 h” value [1] was 0% and the “Percentage of motility inhibition 24 h” value [2] was 2%.

With `O=c1cc(-c2ccccc2)oc2cc(O)cc(O[C@@H]3O[C@H](CO)[C@@H](O)[C@H](O)[C@H]3O)c12` [Toringin] the “Percentage of motility inhibition 0 h” value [1] was 0% and the “Percentage of motility inhibition 24 h” value [2] was 2%.

With `NCCCC[C@H](NC(=O)[C@H](Cc1c[nH]c2ccccc12)NC(=O)[C@@H](N)CCCCN)C(=O)O` [H‐Lys‐Trp‐Lys‐OH] (H-Lys-Trp-Lys-OH) the “Percentage of motility inhibition 0 h” value (0 h, 110 μM) was 55% and the “Percentage of motility inhibition 24 h” value (24 h, 110 µM) was 10%.

In the case of `C[C@@H](CO)[C@@H]1CC[C@@]2(CC[C@]3(C)[C@H](CC[C@@H]4[C@@]5(C)CC[C@H](O[C@@H]6O[C@H](CO)[C@@H](O)[C@H](O)[C@H]6O[C@@H]6O[C@H](CO)[C@@H](O)[C@H](O)[C@H]6O)[C@@](C)(CO[C@@H]6O[C@H](CO)[C@@H](O)[C@H](O)[C@H]6O)[C@@H]5CC[C@]43C)[C@H]2O)CO1` [Hosenkoside A], the “Percentage of motility inhibition 0 h” value [1] is reported as 15% and the “Percentage of motility inhibition 24 h” value [2] is reported as 19%.

In the case of `COc1cc2c(cc1O)[C@@H]1Cc3ccc(OC)c(OC)c3CN1CC2` [(‐)‐Isocorypalmine], the “Percentage of motility inhibition 0 h” value [1] is reported as 0% and the “Percentage of motility inhibition 24 h” value [2] is reported as 0%.

In the case of `C[C@H]1CC[C@@H]2N(C1)C[C@H]1[C@@H]3C[C@H]4[C@@H](CC(=O)[C@H]5C[C@H](O)CC[C@@]54C)[C@@H]3CC[C@H]1[C@]2(C)O` [Yubeinine], the “Percentage of motility inhibition 0 h” value [1] is reported as 13% and the “Percentage of motility inhibition 24 h” value [2] is reported as 0%.

With `O=C(/C=C/c1ccc(O)c(O)c1)c1ccc(O)c(O)c1O` [Okanin] the “Percentage of motility inhibition 0 h” value [1] was 9% and the “Percentage of motility inhibition 24 h” value [2] was 31%.

`CC1(C)[C@@H](O[C@H]2O[C@H](C(=O)[O-])[C@@H](O)[C@H](O)[C@H]2O[C@@H]2O[C@H](C(=O)[O-])[C@@H](O)[C@H](O)[C@H]2O)CC[C@]2(C)[C@H]3C(=O)C=C4[C@@H]5C[C@@](C)(C(=O)O)CC[C@]5(C)CC[C@@]4(C)[C@]3(C)CC[C@@H]12.[K+].[K+]` [Dipotassium glycyrrhizinate] was tested, and the “Percentage of motility inhibition 0 h” value [1] was 17% and 15% and the “Percentage of motility inhibition 24 h” value [2] was 3%.

In the case of `CCn1cc(C(=O)O)c(=O)c2cc(F)c(N3CCNC(C)C3)c(F)c21.Cl` (centres unmarked) [Lomefloxacin (hydrochloride)], the “Percentage of motility inhibition 0 h” value [1] is reported as 39% and the “Percentage of motility inhibition 24 h” value [2] is reported as 0%.

With `Nc1ccc(S(=O)(=O)[N-]c2nccs2)cc1.[Na+]` [Sulfathiazole (sodium)] the “Percentage of motility inhibition 0 h” value [1] was 15% and the “Percentage of motility inhibition 24 h” value [2] was 6%.

For `C=C1C(=O)O[C@H]2C[C@@H](C)[C@@H]3[C@@H](OC(C)=O)C[C@H](O)[C@@]3(C)[C@@H](OC(C)=O)[C@H]12` [Britannin], the “Percentage of motility inhibition 0 h” value [1] was 14% and the “Percentage of motility inhibition 24 h” value [2] was 5%.

With `C[C@H](CO[C@@H]1O[C@H](CO)[C@@H](O)[C@H](O)[C@H]1O)[C@H]1CC[C@@]2(CC[C@]3(C)[C@H](CC[C@@H]4[C@@]5(C)CC[C@H](O[C@@H]6O[C@H](CO)[C@@H](O)[C@H](O)[C@H]6O[C@@H]6OC[C@@H](O)[C@H](O)[C@H]6O)[C@@](C)(CO)[C@@H]5CC[C@]43C)[C@H]2O)CO1` [Hosenkoside F] the “Percentage of motility inhibition 0 h” value [1] was 12% and the “Percentage of motility inhibition 24 h” value [2] was 0%.

In the case of `CCCCCCCC/C=C\CCCCCCCC(=O)[O-].[Na+]` [Sodium oleate], the “Percentage of motility inhibition 0 h” value [1] is reported as 0% and the “Percentage of motility inhibition 24 h” value [2] is reported as 0%.

For `COC(=O)N[C@H](C(=O)N1CC2(CC2)C[C@H]1c1nc(-c2ccc3c(c2)C(F)(F)c2cc(-c4ccc5[nH]c([C@@H]6[C@H]7CC[C@H](C7)N6C(=O)[C@@H](NC(=O)OC)C(C)C)nc5c4)ccc2-3)c[nH]1)C(C)C` [Ledipasvir (acetone)], the “Percentage of motility inhibition 0 h” value [1] was 14% and the “Percentage of motility inhibition 24 h” value [2] was 4%.
